# Patent US8337828B2, “Use of thymosin alpha 1, alone or in combination with PTX3 or ganciclovir, for the treatment of cytomegalovirus infection” (priority 2006, dated 2012)
# Legend:
# spleen cells = test: Cytokine levels in culture supernatants of spleen cells from MCMV-infected mice (ELISA); format: in vivo; conditions: BALB/c mice with MCMV infection, GCV compared with Thymosin alpha 1
# Text: Arrow indicates an inducible band. Lane 1, uninfected cells; lane 2, MCMV-infected; lane 3, Thymosin alpha 1 treated; lane 4, MCMV+Thymosin alpha 1 treated. (FIG. 3b) Cytokine production (pg/ml) by DC subsets treated as above. Bars indicate the standard errors. *P<0.05, cytokine production in MCMV-infected DC vs uninfected DC. **P<0.05, Thymosin alpha 1-treated vs untreated DC. (FIG. 3c) Cytokine production in mice during MCMV infection. Cytokine levels (pg/ml) in culture supernatants of spleen cells from mice with MCMV infection and treated for a week with Thymosin alpha 1 or GCV. *P<0.05, treated vs untreated mice. ND, not done.
# Viral load (FIG. 4a) and cytokine production (FIG. 4b) in C57BL6, TLR4−/−, TLR9−/− and MyD88−/− mice infected with 5×10^5 PFU of MCMV and treated with 200 μg/kg Tα1 for a week. Virus titers, expressed as log 10, were quantified on MEF cells by standard plaque assay on infected tissues removed a week after infection and treatment. Cytokine (pg/ml) levels in culture supernatants of spleen cells were determined by ELISA assay. Bars indicate the standard errors. *P<0.05, Tα1-treated vs untreated mice. Results are representative of 3 independent experiments.
# (§1) BALB/c or C57BL6 mice were infected with 10^5 or 5×10^5 PFU of MCMV, respectively. Virus titers, expressed as log 10, were quantified on MEF cells by standard plaque assay on lung tissues removed 7 days after the infection. Tα1 (200 μg/kg/daily for a week) and/or GCV (40 mg/kg, three times a week) were administered beginning the day of the infection. Cytokine (pg/ml) levels in culture supernatants of spleen cells (7 days) were determined by ELISA assay. Bars indicate the standard errors. *P<0.05, treated vs untreated mice. Results are representative of 3 independent experiments.
# Quantification of cytokines by ELISA and ELISPOT assays. The levels of cytokines in the culture supernatants of mitogen-stimulated spleen cells (48 h stimulation with 10 μg/ml ConA) or MCMV-pulsed DC (24 h) were determined by ELISA (R&D Systems and PBL, Biomedical Lab, Milan, Italy). The detection limits (pg/ml) of the assays were <16 for IL-12 p70, <10 for IFN-., <3 for IL-10 and <10 for IFN-a. IFN-.-producing NK cells were enumerated by ELISPOT assay on purified NK (Virus Res. 2003; 98:17-467 25). Results are expressed as the mean number of cytokine-producing cells (±SE) per 10^5 cells, calculated using replicates of serial 2-fold dilutions of cells.
# MCMV = MCMV infection in mice, virus titers by standard plaque assay on tissues; format: in vivo, BALB/c and C57BL6 mice
# Description: BALB/c (FIG. 1a) and C57BL6 (FIG. 1b) mice were infected with 1×10^5 or 5×10^5 PFU of MCMV, respectively. Virus titers were quantified on MEF cells by standard plaque assay on tissues removed at different times (FIG. 1a) or a week after infection (FIG. 1b) and expressed as log 10(mean±standard errors, SE). Thymosin alpha 1 (200 μg/kg given for 7 or 14 days) and GCV (40 mg/kg given three times a week) were administered beginning the day of the infection. Controls received the scrambled peptide. Results are representative of 4 independent experiments. Bars indicate the standard errors. *P<0.05, viral load between treated and untreated mice.
# as §1
# Inbred C57BL6 and BALB/c mice were injected intraperitoneally (i.p.) with 1×10^5 (BALB/c) or 5×10^5 (C57BL6) plaque forming units (PFU) of MCMV. Virus titers were quantified on MEF cells by standard plaque assay on tissues removed a day after treatment. Treatments were as follow: Tα1 ([…]) and PTX3 (1 mg/k/ip) (SIGMA-Tau, Pomezia, Rome, Italy) were given daily for 7 consecutive days beginning the day of the infection. Controls received the scrambled peptide. All organs from uninfected animals were negative viruses. Virus titers are expressed as log 10 (mean±standard errors, SE).
# Mice. Wild-type (WT) inbred C57BL6 and BALB/c mice, 8 to 12 weeks old, were purchased from Charles River Breeding Laboratories (Calco, Italy). Pairs of homozygous TLR9-(TLR9−/−), TLR4-(TLR4−/−), and MyD88-(MyD88−/−)-deficient mice (on the C57BL6 background), were bred under specific pathogen-free conditions at the breeding facilities of the University of Perugia, Perugia, Italy. Experiments were performed following protocols approved by the institutional animal committee and in accordance with European Economic Community Council Directive as well as institutional animal care and use guidelines.
# Virus, infection and treatments. Stocks of Smith strain MCMV salivary gland extracts were prepared from BALB/c mice and titered in a standard plaque assay on BALB/c murine embryonic fibroblast (MEF) cells (J. Gen. Virol. 2002; 83:2983-2993). Mice were injected intraperitoneally (i.p.) with 1×10^5 (C57BL6) plaque forming units (PFU) of MCMV. Virus titers were quantified on MEF cells by standard plaque assay on tissues removed at different times. Treatments were as follows: Thymosin alpha 1 and the scrambled polypeptide (both from SciClone Pharmaceuticals, San Mateo, CA) were supplied as purified (the endotoxin levels were <0.03 pg/ml, by a standard limulus lysate assay) sterile, lyophilized, acetylated polypeptide. The sequences were as follows: Ac-Ser-Asp-Ala-Ala-Val-Asp-Thr-Ser-Ser-Glu -Ile-Thr-Thr-Lys-Asp-Leu-Lys-Glu-Lys-Lys-Glu-Val-Glu-Glu-Ala-Glu-Asn-O (Tα1) SEQ ID NO:1 and Ac-Ala-Lys-Ser-Asp-Val-Lys-Ala-Glu-Thr-Ser-Ser-Glu-Ile-Asp-Thr-Thr-Glu-Leu -Asp-Glu-Lys-Val-Glu-Val-Lys-Ala-Asn-Glu-OH (scrambled peptide) SEQ ID NO:2. The lyophilized powders were reconstituted in sterile water and 200 μg/kg/i.p. were given daily for 7 or 14 consecutive days beginning the day of the infection. Gancyclovir (GCV) (Cymevene; from Recordati, Milan, Italy) was administered at 40 mg/kg/i.p. three times a week, every other day, beginning 6 h after infection. Controls received the scrambled peptide or the diluent alone.
# Plaque assay. Plaque assay was determined on cells grown to subconfluence and incubated with serially diluted virus samples for 2 h at 37° C. (10). […]
compound,measurement,setting,value
"Nc1nc(O)c2ncn(COC(CO)CO)c2n1 [GCV, Ganciclovir]","IFN-a, IFN-. and IL-12p70 production",spleen cells,comparable to those obtained with GCV
Ac-Ala-Lys-Ser-Asp-Val-Lys-Ala-Glu-Thr-Ser-Ser-Glu-Ile-Asp-Thr-Thr-Glu-Leu -Asp-Glu-Lys-Val-Glu-Val-Lys-Ala-Asn-Glu-OH (Ac-AKSDVKAETSSEIDTTELDEKVEVKANE-OH) [scrambled peptide],viral load in different visceral organs,"MCMV; 200 μg/kg for 7 days, both susceptible (BALB/c) and resistant (C57BL6) mice",not
PTX3: long pentraxin protein with N-terminal domain and C-terminal domain similar to short pentraxins; from SIGMA-Tau,viral titers in the lung,"MCMV; PTX3 alone, 1 mg/k/ip daily for 7 days, BALB/c or C57BL6 mice",decreased the viral titers
